Data published in patent US10202361B2, “Pyridazinones as herbicides” (E I DU PONT DE NEMOURS AND COMPANY, priority 2014, dated 2019).
Like-named read-outs stand apart in the source and are kept apart here.

Legend:
Experiment in all cases: Test C pre-/postemergence greenhouse herbicide test
Assay type in all cases: in vivo
[1] = test system: ragweed (common ragweed, Ambrosia elatior); conditions: Ambrosia artemisiifolia, Ragweed, read-out: Plant response rating; for pest or weed control at 31 g/ha: 31 g ai/ha; for pest or weed control at 62 g/ha: 62 g ai/ha; for pest or weed control at 125 g/ha: 125 g ai/ha; for pest or weed control at 250 g/ha: 250 g ai/ha
In short: (§1)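 Greenhouse pre- and postemergence screen: compounds in a non-phytotoxic solvent mix plus surfactant were applied to soil/sand-sown seeds or to 1- to 4-leaf plants. Visual rating 13–15 d later, 0 (no effect) to 100 (complete control).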

[2] = test system: oat, wild (wild oat, Avena fatua); conditions: Postemergence
In short: as §1

[3] = test system: velvetleaf (Abutilon theophrasti); conditions: Abutilon theophrasti, Velvetleaf, read-out: Plant response rating; for pest or weed control at 62 g/ha: 62 g ai/ha; for pest or weed control at 125 g/ha: 125 g ai/ha; for pest or weed control at 250 g/ha: 250 g ai/ha
In short: as §1

[4] = test system: morningglory (Ipomoea coccinea); conditions: Morningglory
In short: as §1

[5] = test system: galium (catchweed bedstraw, Galium aparine); conditions: Galium, read-out: Plant response rating; for pest or weed control at 31 g/ha: 31 g ai/ha; for pest or weed control at 62 g/ha: 62 g ai/ha; for pest or weed control at 125 g/ha: 125 g ai/ha; for pest or weed control at 250 g/ha: 250 g ai/ha
In short: as §1

[6] = test system: oilseed rape (Brassica napus); conditions: Oilseed Rape
In short: as §1

[7] = test system: foxtail, giant (giant foxtail, Setaria faberii); conditions: Setaria faberi, Foxtail, Giant, read-out: Plant response rating; for pest or weed control at 31 g/ha: 31 g ai/ha; for pest or weed control at 62 g/ha: 62 g ai/ha; for pest or weed control at 125 g/ha: 125 g ai/ha; for pest or weed control at 250 g/ha: 250 g ai/ha
In short: as §1

[8] = test system: lambsquarters (Chenopodium album)
In short: as §1

[9] = test system: waterhemp (common waterhemp, Amaranthus rudis); conditions: Waterhemp
In short: as §1

[10] = test system: pigweed (Amaranthus retroflexus); conditions: Amaranthus retroflexus, Pigweed, read-out: Plant response rating; for pest or weed control at 62 g/ha: 62 g ai/ha; for pest or weed control at 125 g/ha: 125 g ai/ha; for pest or weed control at 250 g/ha: 250 g ai/ha
In short: as §1

[11] = test system: ryegrass, Italian (Italian ryegrass, Lolium multiflorum); conditions: Lolium multiflorum, Ryegrass, Italian, read-out: Plant response rating; for pest or weed control at 31 g/ha: 31 g ai/ha; for pest or weed control at 62 g/ha: 62 g ai/ha; for pest or weed control at 125 g/ha: 125 g ai/ha; for pest or weed control at 250 g/ha: 250 g ai/ha
In short: as §1

[12] = test system: kochia (Kochia scoparia); conditions: Postemergence
In short: as §1

[13] = test system: nutsedge, yellow (yellow nutsedge, Cyperus esculentus); conditions: Cyperus, Nutsedge, Yellow, read-out: Plant response rating; for pest or weed control at 31 g/ha: 31 g ai/ha; for pest or weed control at 62 g/ha: 62 g ai/ha; for pest or weed control at 125 g/ha: 125 g ai/ha; for pest or weed control at 250 g/ha: 250 g ai/ha
In short: as §1

For COc1cc(=O)n(-c2ccc(F)cc2)nc1Cc1ccnc(C(F)(F)F)c1 [Compound 17, 2-(4-fluorophenyl)-5-methoxy-6-[[2-(trifluoromethyl)-4-pyridinyl]methyl]-3 (2H)-pyridazinone], the pest or weed control at 31 g/ha ([1]; post-emergence, Postemergence) was 40%, the pest or weed control at 62 g/ha ([1]; post-emergence, Postemergence) was 70% and the pest or weed control at 125 g/ha ([1]; post-emergence, Postemergence) was 80%. For the same compound, the pest or weed control at 250 g/ha ([1]; post-emergence, Postemergence) was 85%, the pest or weed control at 31 g/ha ([1]; pre-emergence, Preemergence) was 35% and the pest or weed control at 62 g/ha ([1]; pre-emergence, Preemergence) was 65%. For the same compound, the pest or weed control at 125 g/ha ([1]; pre-emergence, Preemergence) was 80%, the pest or weed control at 250 g/ha ([1]; pre-emergence, Preemergence) was 98% and the Plant response rating ([2]; 31 g ai/ha) was 10. For the same compound, the Plant response rating ([2]; 62 g ai/ha) was 15, the Plant response rating ([2]; 125 g ai/ha) was 40 and the Plant response rating ([2]; 250 g ai/ha) was 45. The pest or weed control at 31 g/ha ([3]; post-emergence, Postemergence, 31 g ai/ha) was 20%, the pest or weed control at 62 g/ha ([3]; post-emergence, Postemergence) was 20% and the pest or weed control at 125 g/ha ([3]; post-emergence, Postemergence) was 30%. It also gave a pest or weed control at 250 g/ha ([3]; post-emergence, Postemergence) of 45%, a pest or weed control at 62 g/ha ([3]; pre-emergence, Preemergence) of 75% and a pest or weed control at 125 g/ha ([3]; pre-emergence, Preemergence) of 100%. For the same compound, the pest or weed control at 250 g/ha ([3]; pre-emergence, Preemergence) was 100%, the Plant response rating ([4]; Postemergence, 31 g ai/ha) was 65 and the Plant response rating ([4]; Postemergence, 62 g ai/ha) was 65. For the same compound, the Plant response rating ([4]; Postemergence, 125 g ai/ha) was 65, the Plant response rating ([4]; Postemergence, 250 g ai/ha) was 70 and the Plant response rating ([4]; Preemergence, 31 g ai/ha) was 85. The Plant response rating ([4]; Preemergence, 62 g ai/ha) was 85, the Plant response rating ([4]; Preemergence, 125 g ai/ha) was 100 and the Plant response rating ([4]; Preemergence, 250 g ai/ha) was 100. It also gave a pest or weed control at 31 g/ha ([5]; post-emergence, Postemergence) of 60%, a pest or weed control at 62 g/ha ([5]; post-emergence, Postemergence) of 70% and a pest or weed control at 125 g/ha ([5]; post-emergence, Postemergence) of 75%. The pest or weed control at 250 g/ha ([5]; post-emergence, Postemergence) was 85%, the pest or weed control at 31 g/ha ([5]; pre-emergence, Preemergence) was 100% and the pest or weed control at 62 g/ha ([5]; pre-emergence, Preemergence) was 100%. For the same compound, the pest or weed control at 125 g/ha ([5]; pre-emergence, Preemergence) was 100%, the pest or weed control at 250 g/ha ([5]; pre-emergence, Preemergence) was 100% and the Plant response rating ([6]; Postemergence, 31 g ai/ha) was 5. It also gave a Plant response rating ([6]; Postemergence, 62 g ai/ha) of 20, a Plant response rating ([6]; Postemergence, 125 g ai/ha) of 25 and a Plant response rating ([6]; Preemergence, 31 g ai/ha) of 50. The Plant response rating ([6]; Preemergence, 62 g ai/ha) was 100, the Plant response rating ([6]; Preemergence, 125 g ai/ha) was 100 and the Plant response rating ([6]; Preemergence, 250 g ai/ha) was 100. The pest or weed control at 31 g/ha ([7]; post-emergence, Postemergence) was 10%, the pest or weed control at 62 g/ha ([7]; post-emergence, Postemergence) was 10% and the pest or weed control at 125 g/ha ([7]; post-emergence, Postemergence) was 20%. For the same compound, the pest or weed control at 250 g/ha ([7]; post-emergence, Postemergence) was 45%, the pest or weed control at 31 g/ha ([7]; pre-emergence, Preemergence) was 100% and the pest or weed control at 62 g/ha ([7]; pre-emergence, Preemergence) was 100%. It also gave a pest or weed control at 125 g/ha ([7]; pre-emergence, Preemergence) of 100%, a pest or weed control at 250 g/ha ([7]; pre-emergence, Preemergence) of 100% and a Plant response rating ([8]; Postemergence, 31 g ai/ha) of 75. It also gave a Plant response rating ([8]; Postemergence, 62 g ai/ha) of 75, a Plant response rating ([8]; Postemergence, 125 g ai/ha) of 90 and a Plant response rating ([8]; Postemergence, 250 g ai/ha) of 90. It also gave a Plant response rating ([8]; Preemergence, 31 g ai/ha) of 95, a Plant response rating ([8]; Preemergence, 62 g ai/ha) of 95 and a Plant response rating ([8]; Preemergence, 125 g ai/ha) of 95. For the same compound, the Plant response rating ([8]; Preemergence, 250 g ai/ha) was 98, the Plant response rating ([9]; Postemergence, 31 g ai/ha) was 60 and the Plant response rating ([9]; Postemergence, 125 g ai/ha) was 85. It also gave a Plant response rating ([9]; Postemergence, 250 g ai/ha) of 85, a Plant response rating ([9]; Preemergence, 62 g ai/ha) of 100 and a Plant response rating ([9]; Preemergence, 125 g ai/ha) of 100. It also gave a Plant response rating ([9]; Preemergence, 250 g ai/ha) of 100, a pest or weed control at 62 g/ha ([10]; post-emergence, Postemergence) of 60% and a pest or weed control at 125 g/ha ([10]; post-emergence, Postemergence) of 60%. It also gave a pest or weed control at 250 g/ha ([10]; post-emergence, Postemergence) of 70%, a pest or weed control at 31 g/ha ([10]; pre-emergence, Preemergence, 31 g ai/ha) of 100% and a pest or weed control at 62 g/ha ([10]; pre-emergence, Preemergence) of 100%. For the same compound, the pest or weed control at 125 g/ha ([10]; pre-emergence, Preemergence) was 100%, the pest or weed control at 250 g/ha ([10]; pre-emergence, Preemergence) was 100% and the pest or weed control at 31 g/ha ([11]; post-emergence, Postemergence) was 5%. The pest or weed control at 62 g/ha ([11]; post-emergence, Postemergence) was 5%, the pest or weed control at 125 g/ha ([11]; post-emergence, Postemergence) was 5% and the pest or weed control at 250 g/ha ([11]; post-emergence, Postemergence) was 5%. The pest or weed control at 31 g/ha ([11]; pre-emergence, Preemergence) was 5%, the pest or weed control at 62 g/ha ([11]; pre-emergence, Preemergence) was 10% and the pest or weed control at 125 g/ha ([11]; pre-emergence, Preemergence) was 70%. The pest or weed control at 250 g/ha ([11]; pre-emergence, Preemergence) was 75%, the Plant response rating ([12]; 31 g ai/ha) was 80 and the Plant response rating ([12]; 62 g ai/ha) was 90. It also gave a Plant response rating ([12]; 125 g ai/ha) of 90, a Plant response rating ([12]; 250 g ai/ha) of 90 and a pest or weed control at 31 g/ha ([13]; post-emergence, Postemergence) of 5%. It also gave a pest or weed control at 62 g/ha ([13]; post-emergence, Postemergence) of 5%, a pest or weed control at 125 g/ha ([13]; post-emergence, Postemergence) of 10% and a pest or weed control at 250 g/ha ([13]; post-emergence, Postemergence) of 10%. For the same compound, the pest or weed control at 31 g/ha ([13]; pre-emergence, Preemergence) was 20%, the pest or weed control at 62 g/ha ([13]; pre-emergence, Preemergence) was 30% and the pest or weed control at 125 g/ha ([13]; pre-emergence, Preemergence) was 55%. It also gave a pest or weed control at 250 g/ha ([13]; pre-emergence, Preemergence) of 75%.
